24 compounds from PubChem BioAssay AID330 (DTP/NCI, 2004) can be followed below.

Where “and” joins values, the source holds several entries; their conditions need not be identical. Equal values may be shown once. Toxic doses and inconclusive results are not listed.

The subject of the assay is P388 leukemia ip, CD2F1 mice, survival T/C. Briefly: NCI In Vivo Anticancer Drug Screen. Data for tumor model P388 Leukemia (intraperitoneal) in CD2F1 (CDF1) mice. The following applies: endpoint: median survival time, higher = longer survival. The method, boiled down: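 Mice carrying the transplanted tumor received test compound or vehicle. Survival was recorded in each group, and the value is the treated-group measurement divided by that of the vehicle-treated control group.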

Where [1] appears, read: dose: 60.0 mg/kg/injection, schedule: Q01DX005 (ip), vehicle: saline with Tween-80.
Where [2] appears, read: dose: 120.0 mg/kg/injection, schedule: Q01DX005 (ip), vehicle: saline with Tween-80.
[3] abbreviates: dose: 240.0 mg/kg/injection, schedule: Q01DX005 (ip), vehicle: saline with Tween-80.
The mark [4] stands for this setting: dose: 50.0 mg/kg/injection, schedule: Q01DX009 (ip), vehicle: Klucel (hydroxypropylcellulose) (HPC).
Where [5] appears, read: dose: 100.0 mg/kg/injection, schedule: Q01DX009 (ip), vehicle: Klucel (hydroxypropylcellulose) (HPC).
[6] abbreviates: dose: 12.5 mg/kg/injection, schedule: Q01DX005 (ip), vehicle: Klucel (hydroxypropylcellulose) (HPC).
The mark [7] stands for this setting: dose: 25.0 mg/kg/injection, schedule: Q01DX005 (ip), vehicle: Klucel (hydroxypropylcellulose) (HPC).
[8] abbreviates: dose: 100.0 mg/kg/injection, schedule: Q04DX003 (ip), vehicle: Klucel (hydroxypropylcellulose) (HPC).
[9] abbreviates: dose: 200.0 mg/kg/injection, schedule: Q04DX003 (ip), vehicle: Klucel (hydroxypropylcellulose) (HPC).
The mark [10] stands for this setting: dose: 100.0 mg/kg/injection, schedule: Q04DX003 (ip), vehicle: saline.
Setting [11] is: dose: 200.0 mg/kg/injection, schedule: Q04DX003 (ip), vehicle: saline.
Where [12] appears, read: dose: 400.0 mg/kg/injection, schedule: Q04DX003 (ip), vehicle: saline.
Setting [13] is: dose: 50.0 mg/kg/injection, schedule: Q01DX005 (ip), vehicle: saline with Tween-80.
Setting [14] is: dose: 60.0 mg/kg/injection, schedule: Q01DX005 (ip), vehicle: saline.
Setting [15] is: dose: 120.0 mg/kg/injection, schedule: Q01DX005 (ip), vehicle: saline.
Where [16] appears, read: dose: 240.0 mg/kg/injection, schedule: Q01DX005 (ip), vehicle: saline.
The mark [17] stands for this setting: dose: 100.0 mg/kg/injection, schedule: Q01DX009 (ip), vehicle: saline with Tween-80.
The mark [18] stands for this setting: dose: 200.0 mg/kg/injection, schedule: Q01DX009 (ip), vehicle: saline with Tween-80.
The mark [19] stands for this setting: dose: 400.0 mg/kg/injection, schedule: Q01DX009 (ip), vehicle: saline with Tween-80.
Where [20] appears, read: dose: 50.0 mg/kg/injection, schedule: Q01DX009 (ip), vehicle: saline with Tween-80.

On to `CCOC(=O)c1cn(CC)c2cc(-n3cccc3)ccc2c1=O`, for which the T/C is, setting by setting: under setting [1], 93 % of control; under setting [2], 98 % of control; under setting [3], 92 % of control.
`O=NN(CCCl)C(=O)Nc1c[nH]c2ccccc12`: the T/C (dose: 25.0 mg/kg/injection, schedule: Q01DX009 (ip), vehicle: Klucel (hydroxypropylcellulose) (HPC)) was 157 % of control; the T/C under setting [4] was 159 % of control and 166 % of control; the T/C under setting [5] was 166 % of control and 176 % of control; the T/C (dose: 200.0 mg/kg/injection, schedule: Q01DX009 (ip), vehicle: Klucel (hydroxypropylcellulose) (HPC)) was 166 % of control and 175 % of control; the T/C (dose: 400.0 mg/kg/injection, schedule: Q01DX009 (ip), vehicle: Klucel (hydroxypropylcellulose) (HPC)) was 166 % of control and 176 % of control.
Consider `CN1C(=O)N(C)C(=O)C(Cl)(Cl)C1=O`, for which the T/C is 101 % of control under setting [6] and 97 % of control under setting [7].
As to `CC(C)(C)[Si](C)(C)ONC(=O)c1ccccc1`, the T/C (dose: 6.25 mg/kg/injection, schedule: Q01DX009 (ip), vehicle: distilled water + Tween-80) was 100 % of control; the T/C (dose: 12.5 mg/kg/injection, schedule: Q01DX009 (ip), vehicle: distilled water + Tween-80) was 98 % of control; the T/C (dose: 25.0 mg/kg/injection, schedule: Q01DX009 (ip), vehicle: distilled water + Tween-80) was 107 % of control; the T/C (dose: 50.0 mg/kg/injection, schedule: Q01DX009 (ip), vehicle: distilled water + Tween-80) is 91 % of control; the T/C (dose: 100.0 mg/kg/injection, schedule: Q01DX009 (ip), vehicle: distilled water + Tween-80) is 100 % of control; the T/C (dose: 200.0 mg/kg/injection, schedule: Q01DX009 (ip), vehicle: distilled water + Tween-80) was 98 % of control. For the same compound, the T/C (dose: 400.0 mg/kg/injection, schedule: Q01DX009 (ip), vehicle: distilled water + Tween-80) is 100 % of control.
Take `COc1nnnc2c1sc1ccccc12`: the T/C (dose: 100.0 mg/kg/injection, schedule: Q01DX001 (ip), vehicle: saline with Tween-80) was 101 % of control; the T/C (dose: 200.0 mg/kg/injection, schedule: Q01DX001 (ip), vehicle: saline with Tween-80) is 104 % of control; the T/C (dose: 400.0 mg/kg/injection, schedule: Q01DX001 (ip), vehicle: saline with Tween-80) was 102 % of control.
For `CC1=CC(O)C(O)C2(C)C1CC1OC(=O)C(OC3OC(CO)C(O)C(O)C3O)C3C(C)C(O)C4(O)OCC13C42` (centres undefined), where the note is “dose: 2.13 mg/kg/injection, schedule: Q01DX005 (ip), vehicle: water”, the T/C is 101 % of control.
With `O=C1CCCc2c1ccn2Cc1ccccc1`, the T/C reads like this: (dose: 25.0 mg/kg/injection, schedule: Q04DX003 (ip), vehicle: Klucel (hydroxypropylcellulose) (HPC)) 105 % of control; (dose: 50.0 mg/kg/injection, schedule: Q04DX003 (ip), vehicle: Klucel (hydroxypropylcellulose) (HPC)) 100 % of control; under setting [8], 100 % of control; under setting [9], 99 % of control.
For `FC(F)(F)c1ccc2nc3c(nc2c1)-c1ccc(Br)c2cccc-3c12`, the T/C was 115 % of control (dose: 50.0 mg/kg/injection, schedule: Q01DX009 (ip), vehicle: saline); 101 % of control (dose: 100.0 mg/kg/injection, schedule: Q01DX009 (ip), vehicle: saline); 99 % of control (dose: 200.0 mg/kg/injection, schedule: Q01DX009 (ip), vehicle: saline).
As for `[CH3][Ge]([Cl])([c]1ccccc1)[c]1cccc2ccccc12` (centres undefined), the T/C under setting [10] is 102 % of control, the T/C under setting [11] was 97 % of control and the T/C under setting [12] is 101 % of control.
Turning to `O=C(Nc1nc2ccc(Cl)cc2[nH]1)c1ccccc1O`, the T/C runs as follows: under setting [13], 94 % of control; (dose: 100.0 mg/kg/injection, schedule: Q01DX005 (ip), vehicle: saline with Tween-80) 98 % of control; (dose: 200.0 mg/kg/injection, schedule: Q01DX005 (ip), vehicle: saline with Tween-80) 101 % of control.
As for `O=C(O)C1(NO)CCCC1`, the T/C under setting [10] was 100 % of control, the T/C under setting [11] was 118 % of control and the T/C under setting [12] is 95 % of control.
Take `C[Si](C)(C)Cc1ccccc1C(=O)O`: the T/C by setting is: under setting [1], 100 % of control; under setting [2], 103 % of control; under setting [3], 94 % of control.
On to `CCOC(=O)Cn1cnc2cc(Cl)c([N+](=O)[O-])cc2c1=O`, for which the T/C is 100 % of control and 110 % of control under setting [8]; 101 % of control and 121 % of control under setting [9]; 100 % of control (dose: 400.0 mg/kg/injection, schedule: Q04DX003 (ip), vehicle: Klucel (hydroxypropylcellulose) (HPC)); 107 % of control (dose: 600.0 mg/kg/injection, schedule: Q04DX003 (ip), vehicle: Klucel (hydroxypropylcellulose) (HPC)).
With `NC(CCC(=O)NC(CS(=O)(=O)O)C(=O)O)C(=O)O` (centres undefined), the T/C under setting [14] was 108 % of control, the T/C under setting [15] is 108 % of control and the T/C under setting [16] was 108 % of control.
For `CC(C)Cc1cc(C(F)(F)F)nc(NNc2nc(CC(C)C)cc(C(F)(F)F)n2)n1`, the T/C under setting [4] is 90 % of control and the T/C under setting [5] is 87 % of control.
Consider `Cc1ccc2c3nc4ccccc4c-3csc2c1`, for which the T/C is, setting by setting: (dose: 18.0 mg/kg/injection, schedule: Q01DX009 (ip), vehicle: saline) 104 % of control; (dose: 27.5 mg/kg/injection, schedule: Q01DX009 (ip), vehicle: saline) 89 % of control.
For the compound `CC(=O)/C(=C\c1ccccc1)C(=O)CCN(C)C`, the T/C is 100 % of control (dose: 25.0 mg/kg/injection, schedule: Q01DX005 (ip), vehicle: saline with Tween-80) and 103 % of control under setting [13].
`N#Cc1cnn(C(N)=O)c1N`: the T/C under setting [17] was 110 % of control; the T/C (dose: 100.0 mg/kg/injection, schedule: Q04DX003 (ip), vehicle: saline with Tween-80) was 100 % of control; the T/C under setting [18] is 110 % of control; the T/C (dose: 200.0 mg/kg/injection, schedule: Q04DX003 (ip), vehicle: saline with Tween-80) was 100 % of control; the T/C under setting [19] was 100 % of control; the T/C (dose: 400.0 mg/kg/injection, schedule: Q04DX003 (ip), vehicle: saline with Tween-80) was 100 % of control.
With `C/C=C/C1OC(OC)(OC)C1(OC)OC` (centres undefined), the T/C runs as follows: under setting [14], 100 % of control; under setting [15], 100 % of control; under setting [16], 100 % of control.
On to `CCOC(=O)CC(CC(=O)OCC)(C(=O)OCC)C(=O)OCC`, for which the T/C reads like this: under setting [20], 92 % of control; under setting [17], 100 % of control; under setting [18], 96 % of control; under setting [19], 100 % of control.
Turning to `COc1cc(OC)c2c(=O)c3cc(OC)c(OC)cc3oc2c1`, the T/C reads like this: (dose: 8.3 mg/kg/injection, schedule: Q01DX009 (ip), vehicle: Klucel (hydroxypropylcellulose) (HPC)) 98 % of control; (dose: 16.5 mg/kg/injection, schedule: Q01DX009 (ip), vehicle: Klucel (hydroxypropylcellulose) (HPC)) 117 % of control; (dose: 33.0 mg/kg/injection, schedule: Q01DX009 (ip), vehicle: Klucel (hydroxypropylcellulose) (HPC)) 107 % of control; (dose: 66.0 mg/kg/injection, schedule: Q01DX009 (ip), vehicle: Klucel (hydroxypropylcellulose) (HPC)) 107 % of control.
As for `COc1ccc(Br)c(C(=O)Sc2nnnn2-c2cccc(Cl)c2)c1`, the T/C reads like this: under setting [20], 111 % of control; under setting [17], 116 % of control; under setting [18], 115 % of control.
Turning to `CN(C)N=Nc1ccc(C(=O)NC(Cc2ccccc2)C(=O)O)cc1` (centres undefined), the T/C runs as follows: under setting [6], 100 % of control; under setting [7], 101 % of control; (dose: 50.0 mg/kg/injection, schedule: Q01DX005 (ip), vehicle: Klucel (hydroxypropylcellulose) (HPC)) 98 % of control and 102 % of control; (dose: 200.0 mg/kg/injection, schedule: Q01DX005 (ip), vehicle: Klucel (hydroxypropylcellulose) (HPC)) 107 % of control.
In the case of `CCCc1cc(-c2cccc3ccccc23)c(CCC)c2c1-c1cccc3cccc-2c13`, the T/C was 97 % of control under setting [20] and 96 % of control under setting [17].
